# Assay results published in the supplement of paper PMC10307832.
# Tests used:
# Experiment in all cases: relative viability (nuclei count vs DMSO), 5 days (fraction); higher = more cells survive
# [1] = compound: C(C(=O)C(=O)O)Br [Bromopyruvate] + CC(=O)c1c(C)c2cnc(Nc3ccc(N4CCNCC4)cn3)nc2n(C2CCCC2)c1=O [Palbociclib] (partner 0.5 µM)
# In short: (§1)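 Cells from lung cancer lines were seeded into 1536-well plates and, one day later, dosed by pin tool. Treatments were either a single drug or a fixed dose of an anchor drug with five library-drug doses (not always all listed) in √10 steps. After 5 days, nuclei were stained in a one-step fixation (final 0.05% Triton X-100, 1% formaldehyde, 1 ug/ml Hoechst) and counted on 4× images, and relative viability is the treated-to-vehicle nuclei ratio, as the median of duplicate plates.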
# [2] = compound: C(C(=O)C(=O)O)Br [Bromopyruvate] + CC1(C)CCC(c2ccc(Cl)cc2)=C(CN2CCN(c3ccc(C(=O)NS(=O)(=O)c4ccc(N[C@H](CCN5CCOCC5)CSc5ccccc5)c(S(=O)(=O)C(F)(F)F)c4)cc3)CC2)C1 [Navitoclax] (partner 0.5 µM)
# In short: as §1
# [3] = compound: CC(O)(CS(=O)(=O)c1ccc(F)cc1)C(=O)Nc1ccc(C#N)c(C(F)(F)F)c1 [Bicalutamide] + C[C@@H](Oc1cc(-c2cnn(C3CCNCC3)c2)cnc1N)c1c(Cl)ccc(F)c1Cl [Crizotinib] (partner 1 µM)
# In short: as §1
# [4] = compound: CC(O)(CS(=O)(=O)c1ccc(F)cc1)C(=O)Nc1ccc(C#N)c(C(F)(F)F)c1 [Bicalutamide] + C[C@]1(O)C[C@@H](c2nc(-c3ccc4ccc(-c5ccccc5)nc4c3)c3c(N)nccn32)C1 [Linsitinib] (partner 1 µM)
# In short: as §1
Cell Line,relative viability ([1]; first compound 1 µM),relative viability ([1]; first compound 3.162 µM),relative viability ([1]; first compound 10 µM),relative viability ([1]; first compound 31.62 µM),relative viability ([1]; first compound 100 µM),relative viability ([2]; first compound 1 µM),relative viability ([2]; first compound 3.162 µM),relative viability ([2]; first compound 10 µM),relative viability ([2]; first compound 31.62 µM),relative viability ([2]; first compound 100 µM),relative viability ([3]; first compound 0.08 µM),relative viability ([3]; first compound 0.253 µM),relative viability ([3]; first compound 0.8 µM),relative viability ([3]; first compound 2.53 µM),relative viability ([4]; first compound 0.08 µM),relative viability ([4]; first compound 0.253 µM),relative viability ([4]; first compound 0.8 µM),relative viability ([4]; first compound 2.53 µM)
LU99A,0.404,0.414,0.478,0.493,0.2,0.767,0.696,0.834,0.558,0.411,0.65,0.451,0.602,0.362,0.512,0.486,0.566,0.47
LXF-289,0.625,0.649,0.629,0.637,0.638,0.983,0.987,0.898,0.99,1.02,0.815,0.79,0.797,0.807,0.962,0.92,1,0.972
NCI-H23,0.466,0.482,0.601,0.572,0.387,0.855,0.807,0.983,0.768,0.77,0.495,0.467,0.493,0.399,0.584,0.526,0.498,0.454
NCI-H322M,0.463,0.438,0.447,0.421,0.454,1.23,1.2,1.22,1.16,1.3,1.05,0.858,1.16,0.868,0.94,0.976,1.02,1.04
NCI-H441,0.242,0.242,0.256,0.222,0.255,0.539,0.441,0.557,0.439,0.493,0.917,,0.598,0.61,0.6,,0.863,0.404
NCI-H460,0.161,0.247,0.148,0.196,0.186,1.11,1.17,1.58,1.1,1.16,0.896,0.798,1.28,0.825,0.854,0.556,0.986,0.672
NCI-H520,0.235,0.209,0.228,0.232,0.267,1.05,1.08,1.21,1.18,1.03,0.836,0.681,0.93,0.577,0.941,0.875,1.12,0.815
NCI-H647,0.4,0.312,0.466,0.386,0.506,1.17,1.3,1.49,1.18,1.19,1.11,1.23,1.56,0.777,1.2,1.17,1.48,0.955
NCI-H727,0.702,0.654,0.663,0.646,0.648,0.469,0.526,0.401,0.425,0.509,0.928,0.85,0.936,0.781,0.234,0.356,0.295,0.269
